From patent US8013006B2

Key:
[1] = tested on: HCV replicon; test: microbe, parasite or virus in culture; type: cell-based; settings: Hepatitis C virus, 48 h, read-out: Replicon IC5Os

Row | Structure (SMILES) | IC50 [1] [nM] | melting point [°C]
1 | CCn1c(-c2ccc(S(=O)(=O)NC)cc2)c(C#N)c2cc(Cl)ccc21 [Compound 430] | 500 to 2000 | 180 to 186
2 | CCn1c(-c2ccc(N/C(C)=C/C#N)cc2)c(C#N)c2ccc(OC)cc21 [Compound 456] | 500 to 2000 | 157 to 159
3 | CCn1c(-c2ccc(S(N)(=O)=O)cc2)c(C#N)c2cc(-c3cccc(OC)c3)ccc21 [Compound 461] | < 500 | 200 to 205
4 | CCn1c(-c2ccc(S(=O)(=O)NC)cc2)c(C#N)c2cc(-c3cccc(OC)c3)ccc21 [Compound 462] | < 500 | 135 to 140
5 | CCOc1ccc2c(C#N)c(-c3ccc(NS(=O)(=O)CC)cc3)n(CC(C)C)c2c1 [Compound 470] | < 500 | 178 to 180
6 | CCOc1ccc2c(C#N)c(-c3ccc(NS(C)(=O)=O)cc3)n(CC(C)C)c2c1 [Compound 471] | < 500 | 154 to 156
7 | CCOc1ccc2c(C#N)c(-c3ccc(NS(C)(=O)=O)cc3)n(C3CCC3)c2c1 [Compound 472] | < 500 | 215 to 217
8 | CCOc1ccc2c(C#N)c(-c3ccc(NS(=O)(=O)CC)cc3)n(C3CCC3)c2c1 [Compound 473] | < 500 | 189 to 191
9 | CCn1c(-c2ccc(NS(C)(=O)=O)cc2)c(C#N)c2ccc(OCCCl)cc21 [Compound 477] | < 500 | 194 to 195
10 | CCn1c(-c2ccc(NS(C)(=O)=O)cc2)c(C#N)c2ccc(OCCN3CCSCC3)cc21 [Compound 480] | < 500 | 207 to 208
11 | CCCS(=O)(=O)Nc1ccc(-c2c(C#N)c3ccc(OCCCl)cc3n2CC)cc1 [Compound 495] | 500 to 2000 | 126 to 128
12 | CCn1c(-c2ccc(NS(C)(=O)=O)cc2)c(C#N)c2ccc(OCCN(C)C)cc21 [Compound 498] | 500 to 2000 | 192 to 194
13 | CCn1c(-c2ccc(NS(=O)(=O)CC)cc2)cc2ccc(OC(F)F)cc21 [Compound 516, ethanesulfonic acid [4-(6-difluoromethoxy-1-ethyl-1H-iodo-2-yl)-phenyl]-amide] | 500 to 2000 | 155 to 156
14 | Cn1c(-c2ccc(NS(C)(=O)=O)cc2)c(C#N)c2ccc(OC(F)F)cc21 [Compound 518] | 500 to 2000 | 197 to 199
15 | CCn1c(-c2ccc(NS(=O)(=O)CC)cc2)c(C#N)c2ccc(OC(F)F)cc21 [Compound 520] | < 500 | 175 to 177
16 | CCCn1c(-c2ccc(NS(C)(=O)=O)cc2)c(C#N)c2ccc(OC(F)F)cc21 [Compound 521] | < 500 | 184 to 186

Row | Structure (SMILES) | IC50 [1] [nM] | melting point [°C]
17 | CC(C)n1c(-c2ccc(NS(C)(=O)=O)cc2)c(C#N)c2ccc(OC(F)F)cc21 [Compound 523] | < 500 | 190 to 192
18 | CCn1c(-c2cccc(NS(=O)(=O)NC(C)C)c2)c(C#N)c2ccc(OC)cc21 [Compound 542] | 500 to 2000 | 186 to 188
19 | CCn1c(-c2ccc(N)cc2)c(C#N)c2ccc(OCCF)cc21 [Compound 543] | 500 to 2000 | 197 to 200
20 | CCn1c(-c2ccc(NC(=O)C3CC3)cc2)c(C#N)c2ccc(OCCF)cc21 [Compound 544] | < 500 | 263 to 265
21 | CCn1c(-c2ccc(NC(=O)OC)cc2)c(C#N)c2ccc(OCCF)cc21 [Compound 545] | 500 to 2000 | 203 to 205
22 | CCOC(=O)Nc1ccc(-c2c(C#N)c3ccc(OCCF)cc3n2CC)cc1 [Compound 546] | < 500 | 208 to 210
23 | CCn1c(-c2ccc(NS(C)(=O)=O)cc2)c(C#N)c2ccc(OCCF)cc21 [Compound 548] | 500 to 2000 | 171 to 174
24 | CCn1c(-c2ccc(NS(=O)(=O)CC)cc2)c(C#N)c2ccc(OCCF)cc21 [Compound 549] | < 500 | 150 to 153
25 | CCCS(=O)(=O)Nc1ccc(-c2c(C#N)c3ccc(OCCF)cc3n2CC)cc1 [Compound 550] | 500 to 2000 | 183 to 185
26 | CCn1c(-c2ccc(NS(=O)(=O)CCCCl)cc2)c(C#N)c2ccc(OCCF)cc21 [Compound 551] | 500 to 2000 | 187 to 190
27 | CCn1c(-c2ccc(NS(=O)(=O)C3CC3)cc2)c(C#N)c2ccc(OCCF)cc21 [Compound 552] | < 500 | 185 to 188
28 | CCCS(=O)(=O)Nc1cccc(-c2c(C#N)c3ccc(C(F)(F)F)cc3n2CC)c1 [Compound 563] | 500 to 2000 | 210 to 212
29 | CCn1c(-c2ccc(NC(=O)C3CCC3)cc2)c(C#N)c2ccccc21 [Compound 567] | 500 to 2000 | 238.2 to 238.6
30 | CCn1c(-c2ccc(C(=O)NC(C)C)cc2)c(C#N)c2cc(OC)ccc21 [Compound 570] | 500 to 2000 | 220 to 222
31 | CCS(=O)(=O)Nc1ccc(-c2c(C#N)c3cc(OC)ccc3n2C)cc1 [Compound 580] | < 500 | 198 to 200
